System: pruritus and skin lesions associated with allergic dermatitis in dogs
Assay: Control of pruritus and skin lesions associated with allergic dermatitis in dogs (four-arm, blinded, randomized, placebo-controlled study)
Type: in vivo
Details: for Treatment success LSMean (response rate): oral tablets (Form II) once daily, success = 2 unit or more reduction from baseline on 10-unit owner-assessed pruritus VAS in at least 5 of first 7 treatment days, generalized linear mixed model
Protocol: Control of Pruritus and Skin Lesions Associated with Allergic Dermatitis in Dogs
This study evaluated 2-(3-(4-(7H-pyrrolo[2,3-d]pyrimidin-4-yl)-1H-pyrazol-1-yl)-1-(cyclopropylsulfonyl)azetidin-3-yl)acetonitrile for control of pruritus and skin lesions associated with allergic dermatitis in dogs.
Oral tablets were prepared containing Form II 2-(3-(4-(7H-pyrrolo[2,3-d]pyrimidin-4-yl)-1H-pyrazol-1-yl)-1-(cyclopropylsulfonyl)azetidin-3-yl)acetonitrile, as follows. Oral tablet blends were prepared containing crystal Form II 2-(3-(4-(7H-pyrrolo[2,3-d]pyrimidin-4-yl)-1H-pyrazol-1-yl)-1-(cyclopropylsulfonyl)azetidin-3-yl)acetonitrile, microcrystalline cellulose, pregelantinized starch, dicalcium phosphate dehydrate, oxide pigment, and magnesium stearate. The tablet blends were pressed giving tablet cores containing 2.4 mg, 3.6 mg, 5.4 mg, and 16 mg of crystal Form II 2-(3-(4-(7H-pyrrolo[2,3-d]pyrimidin-4-yl)-1H-pyrazol-1-yl)-1-(cyclopropylsulfonyl)azetidin-3-yl)acetonitrile, as well as a placebo core. The tablet cores were coated with a mixture containing water and Opadry 20A150011 Red, thereby giving the final oral tablets for the study.
A four-arm, blinded, randomized, placebo-controlled study was conducted to assess the efficacy of daily administration of 2-(3-(4-(7H-pyrrolo[2,3-d]pyrimidin-4-yl)-1H-pyrazol-1-yl)-1-(cyclopropylsulfonyl)azetidin-3-yl)acetonitrile for control of pruritus and skin lesions associated with allergic dermatitis in dogs. Subjects were randomized to one of the following treatment arms: API-containing Tablets, 0.25-0.40 mg/kg Body Weight; API-containing Tablets, 0.40-0.60 mg/kg Body Weight; API-containing Tablets, 0.60-0.80 mg/kg Body Weight; and Placebo Tablets, 0.0 mg/kg Body Weight.
Dogs enrolled in the study received once daily treatment for approximately 28 days. Baseline data (clinical history, concomitant therapies, body weight, physical examinations and assessments of pruritus and atopic dermatitis) were collected for each dog at enrollment (Day 0). Additional health assessments, physical examinations, body weight measurements, assessments of pruritus and atopic dermatitis, and collection of blood samples for hematology, serum chemistry and pharmacokinetic (PK) analysis occurred consistent with standard testing protocols.
The primary effectiveness variable was treatment success. A treatment success was defined as a 2 unit or more reduction from baseline on the 10-unit owner-assessed pruritus Visual-Analog Scale (VAS) in at least 70% of the first 7 treatment days (i.e., in at least 5 of the first 7 treatment days). Dogs withdrawn from the study within the first 7 days of treatment due to a perceived lack of effectiveness were considered treatment failures.
Random effects were fit for site and site treatment with a variance component covariance structure and a compound symmetry covariance structure was fit for individual dogs.

N#CCC1(n2cc(-c3ncnc4[nH]ccc34)cn2)CN(S(=O)(=O)C2CC2)C1 [2-(3-(4-(7H-pyrrolo[2,3-d]pyrimidin-4-yl)-1H-pyrazol-1-yl)-1-(cyclopropylsulfonyl)azetidin-3-yl)acetonitrile]
Treatment success LSMean (response rate) (0.25-0.40 mg/kg): 0.4640
Treatment success LSMean (response rate) (0.40-0.60 mg/kg): 0.5590
primary endpoint for treatment success (highest dose group 0.6-0.8 mg/kg once daily, minimum effective dose = success in at least 50% of the dogs): achieved the primary endpoint for treatment success
estimated marginal mean response rate compared with placebo rate (low dose (0.24-0.4 mg/kg) once daily): higher than the placebo rate
estimated marginal mean response rate compared with placebo rate (medium dose (0.4-0.6 mg/kg) once daily): higher than the placebo rate
improvement in lesion scores (once daily 0.6-0.8 mg/kg, at day 28): significant improvement in lesion scores
improvements in pruritus (once daily dosing with 0.6-0.8 mg/kg, from first dose): significant improvements in pruritus from first dose
